Results taken from US20160120932A1, “TRANSPLANT SITE-FORMING AGENT, TRANSPLANT SITE-FORMING DEVICE, ANGIOGENIC AGENT AND ANGIOGENIC DEVICE” (Kyoto University, priority 2014, published 2016).

Tests used:
[1] = test system: subcutaneous tissue of diabetic ACI rats; assay: Evaluation of effect of inducing angiogenesis: observation of tissue around agarose rod implanted under the skin (gross and HE-stained slice); assay type: in vivo, rat
Protocol: (§1) Diabetic rats were prepared by intraperionerally administering streptozocin (STZ) to ACI rats (8-week old, male). The blood glucose level of the rats were measured, and it was determined that diabetes was induced when the blood glucose level exceeded 400 mg/dL for 2 days in succession. A substrate formed of 4.5% agarose gel having a rod shape of 25 mm in length and 4 mm in diameter was impregnated with SEK-1005 (100 μg) dissolved in alcohol. After sufficiently evaporating alcohol, the agarose rod was impregnated with physiological saline. The agarose rods were implanted under the skin of the diabetic rats at two portions, on the right side and on the left side of the backbone, respectively. As a control, agarose rods that were impregnated with physiological saline without SEK-1005 were implanted under the skin of a diabetic rat, on the right side and on the left side of the backbone, respectively.
Ten days after the implantation, the agarose rods were removed and the surrounding tissues were observed.

[2] = test system: diabetic ACI rats; assay: Glucose tolerance test of recipients after transplantation of pancreatic islets; assay type: in vivo, rat; settings: glucose intraperitoneally (60 mg/kg)
Text: (§2) Pancreatic islets were separated from a F344 rat as a donor, and were transplanted to the diabetic ACI rats as prepared above as recipients. Specifically, the agarose rods containing SEK-1005 as prepared in the same process as described above were implanted on the right side and on the left side of the backbone of the diabetic rats, respectively, and were removed 10 days after the implantation. Thereafter, 1500 pancreatic islets separated from the F433 rat were transplanted to each of the spaces formed by removing the agarose rods, respectively (3000 pancreatic islets in total).
In the test, changes in the blood glucose level after intraperitoneally administering glucose (60 mg/kg) were examined.
Further, glucose was administered in the same manner as the above to the recipients at 100 to 105 days after the transplantation of pancreatic islets, and the changes in the blood glucose level were examined. As a result, a trend that a degree of decrease in blood glucose level was less than the recipients at 50 to 55 days after the transplantation of the pancreatic islets was observed. […] On the other hand, the diabetic rats maintained a blood glucose level of as high as approximately 500 mg/dL. The error bars in FIG. 7 each indicate standard deviations (normal; n=4, diabetic; n=3, 40 days after transplantation; n=4, 90 days after transplantation; n=4).

[3] = test system: subcutaneous tissue of diabetic ACI rats; assay: Amount of hemoglobin in subcutaneous tissue at contact portion with the agarose rod; assay type: in vivo, rat; settings: agarose rod containing 10 μg or 100 μg of SEK-1005, implanted for 10 days
Protocol: as §1
The data shown in FIG. 3 are the measurement results of the amount of hemoglobin of a diabetic ACI rat to which an agarose rod was not implanted, a diabetic rat implanted with an agarose rod not containing SEK-1005, a diabetic rat implanted with an agarose rod containing 10 μg of SEK-1005, and a diabetic rat implanted with an agarose rod containing 100 μg of SEK-1005. The measurement was conducted after removing the agarose rod that had been implanted for 10 days. […]

[4] = test system: diabetic ACI rats; assay: HE-stained and immunofluorescent-stained tissue slice of the transplant site; assay type: in vivo, rat; settings: 106 days after transplantation
Text: as §2
The upper images in FIG. 8 are photographs of a HE-stained tissue slice prepared from a site at which the pancreatic islets were transplanted, obtained from a recipient with a normalized blood glucose level at 106 days after the transplantation of the pancreatic islets.
The lower image in FIG. 8 is an immunofluorescent-stained image of a tissue slice obtained at the substantially same site to the HE-stained tissue slice.

[5] = test system: white blood cells or bone-marrow cells; settings: JP-A H10-259134; cited from earlier work
[6] = test system: diabetic ACI rats; assay: Blood glucose level of recipients after transplanting pancreatic islets to the site from which the agarose rod was removed; assay type: in vivo; settings: SEK-1005 rods removed after 10 days, 3000 pancreatic islets from F344 rat transplanted; casual blood glucose level
Protocol: as §1
as §2, with “Thereafter, 1500 pancreatic islets separated from the F433 rat were transplanted to each of the spaces formed by removing the agarose rods, respectively (3000 pancreatic islets in total).” left out

[7] = test system: diabetic ACI rats; assay: Plasma insulin concentration of recipients after transplanting pancreatic islets; assay type: in vivo, rat; settings: at 40 days and at 90 days after transplanting the pancreatic islets; casual measurements
Text: as §2
The error bars in FIG. 6 each indicate standard deviations (normal; n=4, diabetic; n=3, 40 days after transplantation; n=4, 90 days after transplantation; n=4). The values of the plasma insulin concentration are casual measurements.

[8] = test system: diabetic rat; settings: device containing bFGF; cited from earlier work

| Molecule | development of blood vessels having a small diameter at the surrounding tissue (FIG. 1) ([1]; agarose rod containing SEK-1005 (100 μg) implanted under the skin for 10 days, compared to rod not containing SEK-1005) | development of blood vessels having a small diameter in HE-stained subcutaneous tissue slice (FIG. 2) ([1]; contact portion with agarose rod containing SEK-1005, compared with rod not containing SEK-1005) | changes in blood glucose level in glucose tolerance test (FIG. 7) ([2]; 50 to 55 days after transplantation) | changes in blood glucose level in glucose tolerance test (FIG. 7) ([2]; 100 to 105 days after transplantation) | amount of hemoglobin in the subcutaneous tissue (FIG. 3) [3] | blood vessels in the cell clumps, HE-stained tissue slice of transplant site (FIG. 8) [4] | insulin-positive cells in immunofluorescent-stained tissue slice (FIG. 8) [4] | pancreatic islet cell clumps in HE-stained tissue slice of transplant site (FIG. 8) ([4]; recipient with normalized blood glucose level) | amount of granulation tissue [5] | blood glucose levels of recipients (FIG. 4) [6] | plasma insulin concentration versus diabetic rat to which pancreatic islets were not transplanted (FIG. 6) [7] | plasma insulin concentration versus normal rat (FIG. 6) [7] | blood glucose level after transplanting pancreatic islets at the site after removing the device [8] | generation of blood vessels at the site under the skin where the device was implanted [8] |
| --- | --- | --- | --- | --- | --- | --- | --- | --- | --- | --- | --- | --- | --- | --- |
| CC(C)CC1CCC(O)(C(C)(O)C(=O)NC2C(=O)N3NCCCC3C(=O)N(O)C(C)C(=O)N(C)C(Cc3ccccc3)C(=O)N3NCCCC3C(=O)NC(CO)C(=O)OC2C(C)C)OC1C (stereo not drawn) [SEK-1005, Ser,3-hydroxy-N-[2-hydroxy-1-oxo-2-tetrahydro-2-hydroxy-6-methyl-5-(2-methylpropyl)-2H-pyran-2-yl-propyl]-Leu-Pip(hexahydro-3-pyridazinecarbonyl)-N-hydroxy-Ala-N-methyl-Phe-Pip-rho-lactone] | blood vessels having a small diameter were developed | blood vessels having a small diameter were developed | controlled to a similar level to a normal rat | controlled to a degree similar to that of a normal rat | increased | many blood vessels having a small diameter penetrated the cell clumps | insulin-positive cells were observed | many cell clumps which were considered to be pancreatic islets existed | increasing the amount of a granulation tissue | four in six recipients were normalized over 100 days | significantly higher | did not show a significant difference |  |  |
| bFGF: basic fibroblast growth factors, a substance for inducing angiogenesis |  |  |  |  |  |  |  |  |  |  |  |  | normalized during a long period of time | generation of blood vessels having a small diameter was observed |
